The text below walks through data of the NIST ThermoML archive (doi:10.1016/j.jct.2011.12.001).

“And” between values parts separate entries of the source, which are not always exact repeats. Equal values may be shown once. ± gives the expanded uncertainty stated by the source.

Series [1] can be described thus: molar enthalpy of transition or fusion. The conditions noted are these: drop calorimetry.
The nature of series [2]: molar enthalpy of vaporization or sublimation. The conditions noted are these: 298.15 K; Liquid; drop calorimetry.
For series [3] the following is noted: Crystal, Calculated from knudsen effusion weight loss.

As for `COc1ccccc1I` [1-iodo-2-methoxybenzene], in series [1] (324.2 K, Liquid), the “molar enthalpy of transition or fusion” value was determined as 16.52 ± 0.0956 kcal/mol. Further, the molar enthalpy in series [2] turned out to be 15.6 ± 0.669 kcal/mol.

With `COc1ccc(I)cc1` [1-iodo-4-methoxybenzene], the “molar enthalpy of transition or fusion” value in series [1] (349.4 K, Crystal) came out at 21.61 ± 0.143 kcal/mol. Moreover, the molar enthalpy in series [2] came out at 19.7 ± 0.717 kcal/mol. The “vapor or sublimation pressure” value in series [3] (271.17 K) was 0.000123 ± 2e-05 kPa and 0.00012 ± 2e-05 kPa and 0.000116 ± 2e-05 kPa; in series [3] (273.17 K), 0.000161 ± 2.1e-05 kPa and 0.000156 ± 2.1e-05 kPa and 0.000153 ± 2.1e-05 kPa; in series [3] (275.13 K), 0.000213 ± 2.1e-05 kPa and 0.000211 ± 2.1e-05 kPa and 0.000196 ± 2.1e-05 kPa; in series [3] (277.16 K) it was 0.000267 ± 2.2e-05 kPa and 0.000258 ± 2.2e-05 kPa and 0.000279 ± 2.2e-05 kPa; in series [3] (279.06 K), 0.00035 ± 2e-05 kPa and 0.000334 ± 2.3e-05 kPa and 0.000332 ± 2.3e-05 kPa; in series [3] (281.16 K), 0.000463 ± 2.6e-05 kPa and 0.000446 ± 2.6e-05 kPa and 0.000429 ± 2.5e-05 kPa. For the same compound, the “vapor or sublimation pressure” value in series [3] (283.17 K) is 0.000606 ± 2.9e-05 kPa and 0.000571 ± 2.8e-05 kPa and 0.000555 ± 2.8e-05 kPa; in series [3] (285.14 K), 0.000749 ± 3.3e-05 kPa and 0.000718 ± 3.2e-05 kPa; in series [3] (287.14 K), 0.000979 ± 4e-05 kPa and 0.000924 ± 3.8e-05 kPa and 0.000923 ± 3.8e-05 kPa.

Turning to `COc1cccc(I)c1` [3-iodoanisole], the “molar enthalpy of transition or fusion” value in series [1] (324.2 K, Liquid) is 15.85 ± 0.0478 kcal/mol. For the same compound, the molar enthalpy in series [2] came out at 14.9 ± 0.621 kcal/mol.
